Source: US10869478B2, “Uses of 2-(2,4-dichlorophenyl)methyl-4,4-dimethyl-3-isoxazolidone as foliar herbicide” (Bayer CropScience Aktiengesellschaft, priority 2015, dated 2020)
Blank lines part the entries; values can stand above or below the compound they belong to.

Legend:
Type in all cases: in vivo
Hordeum vulgare = details: Table 2; post emergence application GS29, field trial; 200 g a.i./ha; visual, 0-100% scale vs untreated
Procedure: (§1) The experiments were conducted as post applied field trials with plot sizes of 11.25-15 qm, an application volume of 250-300 liter water per hectare and two to three repetitions. Seeds of different crops and various monocot and dicot weeds were either sown or the monocot and dicot weeds were grown naturally and established under common field conditions. The evaluation 13-46 days after application was assessed visually. Treated plants were compared to untreated plants (0-100% scale). In the tables below, GS (growth stage) corresponds to BBCH-code (see for reference Lancashire, P. D.; H. Bleiholder; P. Langeluddecke; R. Stauss; T van den Boom; E. Weber; A. Witzen-Berger (1991). “A uniform decimal code for growth stages of crops and weeds”: Ann. Appl. Biol. 119 (3): 561-601; or Witzenberger, A.; H. Hack; T van den Boom (1989): “Erläuterungen zum BBCH-Dezimal-Code für die Entwicklungsstadien des Getreides—mit Abbildungen”. Gesunde pflanzen 41: 384-388; or Zadoks, J. C., Chang, T T & Konzak, C. F. (1974): A decimal code for the growth stages of cereals. Weed Research 14, 415421)
(§2) The generated values from applications alone and in combination were used to evaluate the combinatorial effects according to S. R. Colby, Weeds 15, pages 20 to 22 (1967).
(§3) The abbreviations have the following meaning: • a.i.=active ingredient • E=Observed combination effect value • EC=Calculated combination effect value according to Colby (EC=A+B−A×B/100) • Diff:=Difference (%) between observed and expected combination effect value (%) (observed minus expected value)

Triticum aestivum = details: 200 g a.i./ha
Procedure: as §1, §2, §3

Centaurea cyanus = assay: Post-emergence field trial, herbicidal effect; details: post emergence application GS18, field trial
Procedure: as §1, §2, §3

Galium aparine = assay: Post-emergence field trial, herbicidal effect; details: post emergence application GS23, field trial
Procedure: as §1, §2, §3

Papaver rhoeas = assay: Post-emergence field trial, herbicidal effect; details: Table 8; post emergence application GS18, field trial; 50 g a.i./ha
Procedure: as §1, §2, §3

Efficacy/selectivity [%] against Hordeum vulgare (Hordeum vulgare): 32%
Efficacy/selectivity [%] against Triticum aestivum (Triticum aestivum; Table 1, post emergence application GS30, field trial, visual, 0-100% scale vs untreated): 30%
Efficacy/selectivty [%] against Triticum aestivum (Triticum aestivum; Table 3, post emergence application GS29, field trial): 18%
Structure (SMILES): CC1(C)CON(Cc2ccc(Cl)cc2Cl)C1=O [COMPOUND I, 2-(2,4-dichlorophenyl)methyl-4,4-dimethyl-3-isoxazolidone]
Efficacy [%] against Centaurea cyanus (Centaurea cyanus; Table 5, 50 g a.i./ha): 25%
Efficacy [%] against Centaurea cyanus (Centaurea cyanus; Table 6, 50 g a.i./ha): 25%
Efficacy [%] against Centaurea cyanus (Centaurea cyanus; Table 9, 100 g a.i./ha): 75%
Efficacy [%] against Galium aparine (Galium aparine; Table 4, 100 g a.i./ha): 25%
Efficacy [%] against Galium aparine (Galium aparine; Table 7, 100 g a.i./ha): 0%
Efficacy [%] against Papaver rhoeas (Papaver rhoeas): 0%

Structure (SMILES): Nc1c([N+](=O)[O-])ccc(Oc2ccccc2)c1Cl [aclonifen, reference compound]
Efficacy [%] against Centaurea cyanus (Centaurea cyanus; Table 9, 450 g a.i./ha): 0%

Structure (SMILES): CCCCCCCC(=O)Oc1c(Br)cc(C#N)cc1Br [bromoxynil AS octanoate, reference compound]
Efficacy [%] against Galium aparine (Galium aparine; Table 7, 175 g a.i./ha): 10%

Structure (SMILES): O=C(Nc1ccc(F)cc1F)c1cccnc1Oc1cccc(C(F)(F)F)c1 [diflufenican, reference compound]
Efficacy [%] against Centaurea cyanus (Centaurea cyanus; Table 6, 75 g a.i./ha): 0%

Structure (SMILES): Nc1c(Cl)c(F)nc(OCC(=O)O)c1Cl [fluroxypyr, reference compound]
Efficacy [%] against Centaurea cyanus (Centaurea cyanus; Table 5, 150 g a.i./ha): 30%

Structure (SMILES): CSc1nnc(C(C)(C)C)c(=O)n1N [metribuzin, reference compound]
Efficacy [%] against Papaver rhoeas (Papaver rhoeas): 0%
